Experimental data from patent US7074765B2, “Synthetic peptide analogs of Arg-Pro-Pro-Gly-Phe as selective inhibitors of thrombin and thrombin activation of protease activated receptors 1 and 4” (The Regents of the University of Michigan, priority 2003, dated 2006).

Columns and labels:
VCaP cells = experiment: α-thrombin-induced intracellular calcium mobilization in VCaP cells; format: cell-based; settings: 2 nM α-thrombin
Procedure: (§1) FIG. 13 examines the influence of MAP4-TH146 on thrombin-induced calcium mobilization in two prostate cancer cell lines that functionally express PAR 1. In Panel A, the influence of MAP4-TH146 on 2 nM α-thrombin-induced intracellular calcium mobilization in VCaP cells. Calcium flux is abolished by […]. At 6.25 μM MAP4-TH146, there is full recovery of thrombin-induced calcium flux. In Panel B, the influence of MAP4-TH146 on 2 nM α-thrombin-induced intracellular calcium mobilization in PC3 cells. Calcium flux is abolished by 200 μM MAP4-TH146. At 1.56 μM MAP4-TH146, calcium flux recovers.

[1] = test system: normal human citrated plasma; experiment: activated partial thromboplastin time (APTT); format: biochemical; settings: normal human plasma; p<0.05
Procedure: The influence of the various peptide formulations used in the present invention on established coagulation-based assays was determined. The activated partial thromboplastin time (APTT) is performed by mixing 0.05 ml normal human citrated plasma with 0.05 ml activated partial thromboplastin reagent purchased from Organon Teknika, Research Triangle Park, N.C. in the absence or presence of a peptide inhibitor. After incubation for 5 min at 37° C., the mixture is recalcified with 0.05 ml of 30 mM calcium chloride and the time to clot formation is measured in an Amelung KC4A instrument (Sigma Chemical Corp, St. Louis, Mo.) (Hasan et al. Thrombosis and Haemostasis. 82, 1182–1187 (1999)). The prothrombin time (PT) is performed by mixing 0.05 ml normal human citrated plasma with 0.05 ml Simplastin (Organon Teknika, Research Triangle Park, N.C.) followed by incubation for 3 min at 37° C. in the absence or presence of a peptide inhibitor. At the addition of 0.05 ml of 30 mM calcium chloride, the time to clot formation is measured in an KC4A instrument (Sigma Chemical Corp, St. Louis, Mo.) (Hasan et al. Thrombosis and Haemostasis. 82, 1182–1187 (1999)). The thrombin clotting time (TCT) is performed by adding 0.1 ml normal human citrated plasma in the absence or presence of a peptide inhibitor and 0.05 ml of a α-thrombin solution such that the final concentration of the thrombin in the entire mixture was 1 nM. Upon addition of the thrombin, the time to clot formation is measured in an KC4A instrument (Sigma Chemical Corp, St. Louis, Mo.). In FIG. 5, peptide TH146 produces a significant prolongation (p<0.05) of the activated partial thromboplastin time at 15 μM, of the prothrombin time at 60 μM, and the thrombin clotting time at 15 μM. In FIG. 6, peptide MAP4-TH146 produced a significant prolongation (p<0.05) of the activated partial thromboplastin time at 0.195 μM, of the prothrombin time at 3.125 μM, and the thrombin clotting time at 0.39 μM.

PC3 cells = experiment: α-thrombin-induced intracellular calcium mobilization in PC3 cells; format: cell-based; settings: 2 nM α-thrombin
Procedure: as §1

[2] = molecular target: T1, recombinant protease activated receptor 1 extracellular domain (rPAR1EC) (Homo sapiens, UniProt P25116); experiment: Inhibition of RPPGF-biotin binding to rPAR1EC; settings: 5 mM peptide, 50 μM RPPGF-biotin (FIG. 7); listed in decreasing order
T1 construct: A portion of the extracellular domain of human PAR1 (Ala^26-Ser^99) (rPAR1EC) was expressed in Escherichia coli; His10-DDDDK (pET19b) (N); made in house; host or cells: E. coli BL21(DE3), pET19b
T1 sequence (P25116 26-99): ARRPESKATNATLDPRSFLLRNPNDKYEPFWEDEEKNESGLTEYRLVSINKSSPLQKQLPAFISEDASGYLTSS

PC-3 cells = experiment: Thrombin-induced motility of prostate cancer cells (Boyden chamber); format: cell-based; settings: 100 μM; 2 nM α-thrombin
Procedure: Motility assays are performed with a modified Boyden chamber (tissue culture-treated, 6.5 mm diameter, 10 μm thickness, 8 μm pores). In the motility assays, 2.5×10^4 cells are plated in the top chamber of non-coated polyethylene teraphthalate (PET) membranes (24-well insert, pore size […]; Becton Dickinson). […] RPMI 10% fetal bovine serum is used as a chemoattractant in the lower chamber. […] The cells that transverse the membranes are stained with Dip-Quick (Jorgensen Laboratories, Loveland, Colo.). Cells in five random fields of view at 200× are counted and expressed as the average number of cells/field of view. […]

[3] = test system: normal human lung fibroblasts (NHLF); experiment: α-thrombin-induced calcium mobilization in fibroblasts; format: cell-based
Procedure: The second assay developed to assess peptides from the combinatorial libraries uses inhibition of α-thrombin-induced calcium mobilization in fibroblasts. Normal human lung fibroblasts (NHLF) were purchased from Clonetics, San Diego, Calif., an affiliate of Bio-Wittaker, Walkersville, Md. The cytoplasmic free Ca^2+ concentration ([Ca^2+]i) was measured using the fluorescent Ca^2+ indicator fura-2 (Molecular Probes, Inc., Eugene, Oreg.). Suspension of fibroblasts in Hepes-Tyrode's buffer were loaded with fura-2 by incubation at 37° C. with 2 μM fura-2/acetoxymethyl ester for 45 minutes according to the method of Rasmussen et al., J. Biol. Chem. 268, 14322 (1993). The labeled fibroblasts were separated from excess probe by washing by centrifugation at 1000 rpm (180×g). Aliquots of the labeled fibroblasts were transferred into a quartz cuvette with a magnetic stirrer, which was then placed in a thermostatically controlled chamber at 37° C. in a fluorescence spectrophotometer (Perkin-Elmer LS50B spectrofluorometer, Chicago, Ill.). Reagents, test peptide, and α-thrombin (0.25–2 nM), were sequentially added directly to the cuvette. The excitation wavelengths varied between 340 and 380 nm. Fluorescence was measured by recording emitted light at 510 nm as reported by Fisher et al., Mol Pharm. 35, 195 (1989). The minimum emission was determined on a solubilized fibroblast sample in the presence of 10 mM EDTA; maximum emission was determined on the same sample with 10 mM Ca^2+ added. The intrafibroblast free Ca^2+ concentration was calculated by the method of Grykiewicz et al., J. Biol. Chem. 260, 3440 (1985). […] The KD for fura-2 was assumed to be 224 nM. Rmax and Rmin are the maximum and minimum fluorescence ratios measured at the end of the experiment, respectively; Sf2 and Sb2 are the fluorescence values at 380 nm in the absence and presence of saturating [Ca^2+], respectively. The reaction was monitored for 3–5 minutes.

Substance: β-Ala-Lys-2Lys-4(D-Arg-Oic-Pro-Gly-Phe) [MAP4-rOicPGF]
- effect on thrombin-induced calcium flux (VCaP cells; 6.25 μM peptide): full recovery
- effect on thrombin-induced calcium flux (VCaP cells; 200 (unit not given) peptide): abolished
- concentration giving significant prolongation of the APTT [1]: 0.195 µM
- effect on thrombin-induced calcium flux (PC3 cells; 1.56 μM peptide): recovers
- effect on thrombin-induced calcium flux (PC3 cells; 200 μM peptide): abolished
- blocking of RPPGF-biotin binding to rPAR1EC by peptides [2]: blocked
- effect on thrombin-induced PC-3 cell motility (PC-3 cells): block
- concentrations that blocked α-thrombin-induced Ca^2+ mobilization in fibroblasts ([3]; 0.25 nM α-thrombin): ≥ 3.1 µM
- inhibition of calcium mobilization ([3]; 0.2 mM peptide, 2 nM alpha thrombin): 98%
- effect on alpha thrombin-induced calcium mobilization ([3]; 0.0016 (unit not given) peptide, 2 nM alpha thrombin): full recovery
